Experimental findings from ChEMBL document CHEMBL4266008, “Exploring Halogen Bonds in 5-Hydroxytryptamine 2B Receptor-Ligand Interactions” (ACS Med Chem Lett, 2018) are described below.

For assay [1], the target named is T1, 5-hydroxytryptamine receptor 2B (Homo sapiens, UniProt P41595). As to the kind of experiment: Antagonist activity at 5HT2B (unknown origin) expressed in CHOK1 cells assessed as inhibition of agonist-induced effect preincubated for 60 mins at 37 degC followed by 15 mins incubation at room temperature and subsequent agonist addition measured for 100 secs by fluorescence assay. The assay is classed as functional, cell-based.

The target of assay [2] is T1, 5-hydroxytryptamine receptor 2B. As to the kind of experiment: Displacement of [3H]LSD from 5HT2B (unknown origin) after 1.5 hrs by microbeta scintillation counting method. (Loss of bound radioactivity is the signal in a displacement assay; it reports binding, not function.)
Assay [3] deals with Mus musculus. Nature of the assay: Protection against castor oil-induced diarrhea in C57BL/6 mouse assessed as improvement in fecal output at 10 mg/kg, po pretreated for 15 mins followed by castor oil addition measured over 4 hrs. The assay is classed as functional, organism-based.
The test system of assay [4] is Mus musculus. Nature of the assay: Protection against castor oil-induced diarrhea in C57BL/6 mouse assessed as improvement in stool consistency at 10 mg/kg, po pretreated for 15 mins followed by castor oil addition measured over 4 hrs. It counts as functional, organism-based.
Assay [5] concerns Mus musculus. As to the kind of experiment: Protection against castor oil-induced diarrhea in C57BL/6 mouse assessed as improvement in body weight at 10 mg/kg, po pretreated for 15 mins followed by castor oil addition measured over 4 hrs. The assay is classed as functional, organism-based.
In assay [6] the target is T1, 5-hydroxytryptamine receptor 2B. As to the kind of experiment: Antagonist activity at 5HT2B (unknown origin) expressed in CHOK1 cells assessed as inhibition of agonist-induced effect at 10 uM preincubated for 60 mins at 37 degC followed by 15 mins incubation at room temperature and subsequent agonist addition measured for 100 secs by fluorescence assay relative to control. It counts as functional, cell-based.

Active and inactive are the calls of the source. The calls are words filed in the database; no cut-off is given here.

As a reminder, the IC50 is the concentration needed to halve the response being measured. One may read the Ki as a measure of affinity in units of concentration, obtained from inhibition or displacement. Low values mean higher affinity, high ones lower affinity. As usually defined, the inhibition is how much of the control response was suppressed.

T1 sequence (P41595 whole entry): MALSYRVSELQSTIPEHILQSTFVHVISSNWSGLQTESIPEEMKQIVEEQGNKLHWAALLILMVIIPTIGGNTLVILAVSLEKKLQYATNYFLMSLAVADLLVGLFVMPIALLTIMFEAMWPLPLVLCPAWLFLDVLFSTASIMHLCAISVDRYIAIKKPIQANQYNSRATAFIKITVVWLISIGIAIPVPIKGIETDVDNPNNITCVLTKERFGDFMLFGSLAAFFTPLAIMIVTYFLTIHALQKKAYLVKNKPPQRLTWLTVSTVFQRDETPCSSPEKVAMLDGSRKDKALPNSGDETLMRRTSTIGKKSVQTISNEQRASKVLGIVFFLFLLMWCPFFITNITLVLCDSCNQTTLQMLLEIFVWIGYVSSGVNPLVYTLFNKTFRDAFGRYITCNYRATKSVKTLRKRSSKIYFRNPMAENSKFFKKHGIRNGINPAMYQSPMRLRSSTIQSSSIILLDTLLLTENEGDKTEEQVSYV

For the compound `NC1=NC2(CCCCC2)NC(Nc2cccc(Br)c2)=N1`, in assay [1], the IC50 was 35.4 nM. Moreover, in assay [2], the affinity, expressed as Ki, was 5.8 nM.

Compound `CN(C)CC/C=C1\c2ccc(Cl)cc2COc2ccccc21` returned a Ki in assay [2] of 3 nM. This lies in the single-digit nanomolar range. Take `CN(C)CC/C=C1\c2ccccc2COc2ccccc21` [E-DOXEPIN]: the result with Mus musculus [3] and in the assay with Mus musculus [4] was Active. In the case of `NC1=NC2(CCCCC2)NC(Nc2cc(Br)cc(Br)c2)=N1`, the IC50 in assay [1] came out at 215 nM. `NC1=NC2(CCCCC2)NC(Nc2cccc(Cl)c2)=N1`: the IC50 in assay [1] worked out at 46.9 nM. Besides, the Ki in assay [2] was determined as 6.3 nM.

On to `Cc1cccc(NC2=NC(N)=NC3(CCCCC3)N2)c1`, for which the IC50 in assay [1] was found to be 459 nM. Also, in assay [2], the inhibition constant Ki was found to be 19.8 nM. As for `NC1=NC2(CCCCC2)NC(Nc2ccccc2)=N1`, the IC50 in assay [1] amounted to 1640 nM. The compound further displayed a Ki in assay [2] of 151 nM. In the case of `CN(C)CC/C=C1\c2ccc(Br)cc2COc2ccccc21`, the result in the assay on Mus musculus [3], with Mus musculus [5] and in the assay on Mus musculus [4] was Active. Besides, in assay [2], the Ki was found to be 2.5 nM. Regarding `NC1=NC2(CCCCC2)NC(Nc2cccc(F)c2)=N1`, the IC50 in assay [1] amounted to 403 nM. Besides, in assay [2], the Ki amounted to 53.3 nM. In assay [2], `CN(C)CC/C=C1\c2ccc(F)cc2COc2ccccc21` showed a Ki of 16.6 nM. This counts as double-digit nanomolar. Take `NC1=NC2(CCCCC2)NC(Nc2cccc(O)c2)=N1`: the Ki in assay [2] stood at 313 nM. For the same compound, in assay [6], the inhibition was less than 50%. As for `NC1=NC2(CCCCC2)NC(Nc2cc(F)cc(Br)c2)=N1`, the IC50 in assay [1] was found to be 74.9 nM. For `NC1=NC2(CCCCC2)NC(Nc2cccc(I)c2)=N1`, the IC50 in assay [1] worked out at 23.3 nM. Also, affinity in assay [2] was put at a Ki of 1.7 nM. Regarding `CCOC(=O)c1cc(Br)cc(NC2=NC(N)=NC3(CCCCC3)N2)c1`, the IC50 in assay [1] came out at 1960 nM.
